Results published in ChEMBL document CHEMBL5113513, “Selective Inhibitors of Medium-Size S1' Pocket Matrix Metalloproteinases: A Stepping Stone of Future Drug Discovery” (J Med Chem, 2022).

Key:
[1] = biological target: T1, Matrix metalloproteinase-9 (Homo sapiens, UniProt P14780); experiment: Inhibition of MMP-9 (unknown origin)
Interstitial collagenase [2] = biological target: T2, Interstitial collagenase (Homo sapiens, UniProt P03956); experiment: Inhibition of MMP-1 (unknown origin)
T2 sequence (P03956 whole entry): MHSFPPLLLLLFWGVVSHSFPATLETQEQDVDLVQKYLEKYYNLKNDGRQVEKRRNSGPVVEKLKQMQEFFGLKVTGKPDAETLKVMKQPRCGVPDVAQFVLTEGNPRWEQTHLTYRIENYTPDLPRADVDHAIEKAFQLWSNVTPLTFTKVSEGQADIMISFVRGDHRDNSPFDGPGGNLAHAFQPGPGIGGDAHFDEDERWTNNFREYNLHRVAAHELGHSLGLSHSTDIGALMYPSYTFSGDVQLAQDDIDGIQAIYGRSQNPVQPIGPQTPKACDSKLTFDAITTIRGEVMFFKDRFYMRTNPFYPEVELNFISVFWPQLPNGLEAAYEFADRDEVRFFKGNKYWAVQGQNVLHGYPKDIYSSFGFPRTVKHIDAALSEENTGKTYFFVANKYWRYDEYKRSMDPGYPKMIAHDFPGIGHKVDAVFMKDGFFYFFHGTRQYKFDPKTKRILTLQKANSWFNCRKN

[3] = biological target: T3, 72 kDa type IV collagenase (Homo sapiens, UniProt P08253)
Stromelysin-1 [4] = biological target: T4, Stromelysin-1 (Homo sapiens, UniProt P08254); experiment: Inhibition of MMP-3 (unknown origin)
[5] = biological target: T5, Matrix metalloproteinase-14 (Homo sapiens, UniProt P50281); experiment: Inhibition of MMP-14 (unknown origin)
Matrilysin [6] = biological target: T6, Matrilysin (Homo sapiens, UniProt P09237); experiment: Inhibition of MMP-7 (unknown origin)
T6 sequence (P09237 whole entry): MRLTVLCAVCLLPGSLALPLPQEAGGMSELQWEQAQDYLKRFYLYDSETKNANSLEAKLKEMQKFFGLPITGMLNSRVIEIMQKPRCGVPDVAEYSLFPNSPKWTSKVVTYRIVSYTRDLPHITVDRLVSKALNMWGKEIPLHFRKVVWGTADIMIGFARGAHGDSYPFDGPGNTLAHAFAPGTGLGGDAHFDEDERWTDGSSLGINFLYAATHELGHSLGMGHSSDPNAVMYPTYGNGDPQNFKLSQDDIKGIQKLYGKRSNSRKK

Collagenase 3 [7] = biological target: T7, Collagenase 3 (Homo sapiens, UniProt P45452)
Description: Inhibition of MMP-13 (unknown origin)

[8] = biological target: T1, Matrix metalloproteinase-9; experiment: Inhibition of MMP-9 (unknown origin) using Mca-Pro-Leu-Gly-Leu-Dpa-Ala-Arg-NH2 as substrate by fluorimetric assay
[9] = biological target: T3, 72 kDa type IV collagenase; experiment: Inhibition of MMP-2 (unknown origin) using Mca-Pro-Leu-Gly-Leu-Dpa-Ala-Arg-NH2 as substrate by fluorimetric assay
[10] = biological target: Macrophage metalloelastase (Homo sapiens, UniProt P39900); experiment: Inhibition of MMP-12 (unknown origin)
Neutrophil collagenase [11] = biological target: T8, Neutrophil collagenase (Homo sapiens, UniProt P22894); experiment: Inhibition of MMP-8 (unknown origin)
[12] = biological target: T3, 72 kDa type IV collagenase; experiment: Inhibition of MMP-2 (unknown origin) catalytic activity using Ac-PLG-[2-mercapto-4-methylpentanoyl]-LG-OC2H5 as substrate and measured upto 30 mins by microplate reader analysis
[13] = biological target: T1, Matrix metalloproteinase-9; experiment: Inhibition of MMP-9 (unknown origin) catalytic activity using Ac-PLG-[2-mercapto-4-methylpentanoyl]-LG-OC2H5 as substrate and measured upto 30 mins by microplate reader analysis
Stromelysin-2 [14] = biological target: T9, Stromelysin-2 (Homo sapiens, UniProt P09238); experiment: Inhibition of MMP-10 (unknown origin)
Stromelysin-2 [15] = biological target: T9, Stromelysin-2; experiment: Inhibition of human MMP-10 expressed in Escherichia coli BL21(DE3) using Mca-Pro-Leu-Gly-Leu-Dpa-Ala-Arg-NH2 as substrate preincubated for 30 mins followed by susbstrate addition by photon-counter spectrophotometer analysis
[16] = biological target: T3, 72 kDa type IV collagenase; experiment: Inhibition of human MMP-2 expressed in Escherichia coli BL21(DE3) using Mca-Pro-Leu-Gly-Leu-Dpa-Ala-Arg-NH2 as substrate preincubated for 30 mins followed by susbstrate addition by photon-counter spectrophotometer analysis
Stromelysin-1 [17] = biological target: T4, Stromelysin-1; experiment: Inhibition of human MMP-3 expressed in Escherichia coli BL21(DE3) using Mca-Pro-Leu-Gly-Leu-Dpa-Ala-Arg-NH2 as substrate preincubated for 30 mins followed by susbstrate addition by photon-counter spectrophotometer analysis
Matrilysin [18] = biological target: T6, Matrilysin; experiment: Inhibition of human MMP-7 expressed in Escherichia coli BL21(DE3) using Mca-Pro-Leu-Gly-Leu-Dpa-Ala-Arg-NH2 as substrate preincubated for 30 mins followed by susbstrate addition by photon-counter spectrophotometer analysis
Collagenase 3 [19] = biological target: T7, Collagenase 3; experiment: Inhibition of human MMP-13 expressed in Escherichia coli BL21(DE3) using Mca-Pro-Leu-Gly-Leu-Dpa-Ala-Arg-NH2 as substrate preincubated for 30 mins followed by susbstrate addition by photon-counter spectrophotometer analysis
Interstitial collagenase [20] = biological target: T2, Interstitial collagenase; experiment: Inhibition of human MMP-1 expressed in Escherichia coli BL21(DE3) using Mca-Pro-Leu-Gly-Leu-Dpa-Ala-Arg-NH2 as substrate preincubated for 30 mins followed by susbstrate addition by photon-counter spectrophotometer analysis
[21] = biological target: T1, Matrix metalloproteinase-9; experiment: Inhibition of human MMP-9 expressed in Escherichia coli BL21(DE3) using Mca-Pro-Leu-Gly-Leu-Dpa-Ala-Arg-NH2 as substrate preincubated for 30 mins followed by susbstrate addition by photon-counter spectrophotometer analysis
[22] = biological target: T5, Matrix metalloproteinase-14; experiment: Inhibition of human MMP-14 expressed in Escherichia coli BL21(DE3) using Mca-Pro-Leu-Gly-Leu-Dpa-Ala-Arg-NH2 as substrate preincubated for 30 mins followed by susbstrate addition by photon-counter spectrophotometer analysis
Neutrophil collagenase [23] = biological target: T8, Neutrophil collagenase; experiment: Inhibition of human MMP-8 expressed in Escherichia coli BL21(DE3) using Mca-Pro-Leu-Gly-Leu-Dpa-Ala-Arg-NH2 as substrate preincubated for 30 mins followed by susbstrate addition by photon-counter spectrophotometer analysis

T4 sequence (P08254 whole entry): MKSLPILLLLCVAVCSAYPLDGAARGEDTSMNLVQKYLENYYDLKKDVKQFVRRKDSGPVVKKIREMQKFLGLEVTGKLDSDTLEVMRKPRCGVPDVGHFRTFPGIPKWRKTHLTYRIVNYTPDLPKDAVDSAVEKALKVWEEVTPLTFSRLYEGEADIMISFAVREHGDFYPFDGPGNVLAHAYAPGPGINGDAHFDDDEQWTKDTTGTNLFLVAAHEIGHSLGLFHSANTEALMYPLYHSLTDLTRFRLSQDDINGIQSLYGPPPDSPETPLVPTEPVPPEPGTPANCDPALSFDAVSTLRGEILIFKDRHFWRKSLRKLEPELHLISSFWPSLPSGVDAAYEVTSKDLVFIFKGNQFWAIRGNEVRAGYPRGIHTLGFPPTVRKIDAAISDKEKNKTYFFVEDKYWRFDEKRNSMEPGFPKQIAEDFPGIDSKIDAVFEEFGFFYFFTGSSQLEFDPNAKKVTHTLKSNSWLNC
T1 sequence (P14780 whole entry): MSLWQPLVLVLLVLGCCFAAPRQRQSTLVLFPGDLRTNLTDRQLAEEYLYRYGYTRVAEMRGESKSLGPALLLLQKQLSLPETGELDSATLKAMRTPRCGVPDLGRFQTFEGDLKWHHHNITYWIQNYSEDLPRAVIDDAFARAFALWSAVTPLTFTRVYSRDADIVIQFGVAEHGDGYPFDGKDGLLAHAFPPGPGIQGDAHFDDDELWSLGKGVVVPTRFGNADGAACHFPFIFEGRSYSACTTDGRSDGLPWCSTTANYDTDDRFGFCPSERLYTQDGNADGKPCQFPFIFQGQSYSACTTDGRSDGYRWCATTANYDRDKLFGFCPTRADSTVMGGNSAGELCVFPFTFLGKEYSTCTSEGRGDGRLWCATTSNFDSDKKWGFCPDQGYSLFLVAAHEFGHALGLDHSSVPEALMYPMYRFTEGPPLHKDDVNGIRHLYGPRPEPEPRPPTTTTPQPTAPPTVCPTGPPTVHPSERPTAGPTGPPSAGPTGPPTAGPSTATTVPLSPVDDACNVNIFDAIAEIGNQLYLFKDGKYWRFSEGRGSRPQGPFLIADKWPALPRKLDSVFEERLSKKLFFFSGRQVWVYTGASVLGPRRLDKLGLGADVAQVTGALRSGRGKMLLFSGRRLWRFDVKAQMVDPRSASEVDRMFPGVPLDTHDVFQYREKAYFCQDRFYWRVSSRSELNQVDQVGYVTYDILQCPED
Macrophage metalloelastase, sequence (P39900 whole entry): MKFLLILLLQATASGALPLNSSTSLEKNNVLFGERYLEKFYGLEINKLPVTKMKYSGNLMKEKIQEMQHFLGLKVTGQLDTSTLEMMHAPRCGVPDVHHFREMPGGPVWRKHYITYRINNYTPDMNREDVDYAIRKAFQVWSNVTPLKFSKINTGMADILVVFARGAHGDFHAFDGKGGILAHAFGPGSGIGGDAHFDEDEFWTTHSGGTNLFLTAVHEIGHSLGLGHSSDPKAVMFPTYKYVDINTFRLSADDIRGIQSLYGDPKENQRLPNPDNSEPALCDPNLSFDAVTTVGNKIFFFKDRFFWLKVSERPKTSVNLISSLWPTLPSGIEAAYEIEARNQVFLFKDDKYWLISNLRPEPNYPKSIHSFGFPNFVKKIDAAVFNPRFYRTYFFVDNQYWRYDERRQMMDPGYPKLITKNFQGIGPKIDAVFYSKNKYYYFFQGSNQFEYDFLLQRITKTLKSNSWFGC
T8 sequence (P22894 whole entry): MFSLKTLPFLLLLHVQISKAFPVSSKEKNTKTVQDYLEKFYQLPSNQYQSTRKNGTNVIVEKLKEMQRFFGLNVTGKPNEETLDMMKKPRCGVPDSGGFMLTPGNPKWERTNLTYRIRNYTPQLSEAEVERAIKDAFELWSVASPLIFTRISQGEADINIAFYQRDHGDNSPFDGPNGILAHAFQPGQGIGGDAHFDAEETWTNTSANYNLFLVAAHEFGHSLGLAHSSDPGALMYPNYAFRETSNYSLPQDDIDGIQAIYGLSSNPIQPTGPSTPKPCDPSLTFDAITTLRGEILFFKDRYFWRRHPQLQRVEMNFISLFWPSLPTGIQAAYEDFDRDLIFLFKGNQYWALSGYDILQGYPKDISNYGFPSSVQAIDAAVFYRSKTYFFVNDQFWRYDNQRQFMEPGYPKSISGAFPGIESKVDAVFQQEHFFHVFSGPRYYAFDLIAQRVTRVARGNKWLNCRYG
T9 sequence (P09238 whole entry): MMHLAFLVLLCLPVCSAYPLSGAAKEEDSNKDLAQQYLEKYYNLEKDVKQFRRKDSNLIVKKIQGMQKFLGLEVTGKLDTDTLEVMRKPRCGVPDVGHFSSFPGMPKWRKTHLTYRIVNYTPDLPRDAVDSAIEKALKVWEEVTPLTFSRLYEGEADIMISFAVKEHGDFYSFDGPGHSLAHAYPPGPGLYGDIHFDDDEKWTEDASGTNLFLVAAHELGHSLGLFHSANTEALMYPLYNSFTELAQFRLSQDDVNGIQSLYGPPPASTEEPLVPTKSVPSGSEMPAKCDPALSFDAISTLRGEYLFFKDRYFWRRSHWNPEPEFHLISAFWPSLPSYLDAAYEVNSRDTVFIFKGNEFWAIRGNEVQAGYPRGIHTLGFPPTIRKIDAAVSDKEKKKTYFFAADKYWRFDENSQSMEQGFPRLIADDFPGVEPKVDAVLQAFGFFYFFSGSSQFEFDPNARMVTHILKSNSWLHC
T3 sequence (P08253 whole entry): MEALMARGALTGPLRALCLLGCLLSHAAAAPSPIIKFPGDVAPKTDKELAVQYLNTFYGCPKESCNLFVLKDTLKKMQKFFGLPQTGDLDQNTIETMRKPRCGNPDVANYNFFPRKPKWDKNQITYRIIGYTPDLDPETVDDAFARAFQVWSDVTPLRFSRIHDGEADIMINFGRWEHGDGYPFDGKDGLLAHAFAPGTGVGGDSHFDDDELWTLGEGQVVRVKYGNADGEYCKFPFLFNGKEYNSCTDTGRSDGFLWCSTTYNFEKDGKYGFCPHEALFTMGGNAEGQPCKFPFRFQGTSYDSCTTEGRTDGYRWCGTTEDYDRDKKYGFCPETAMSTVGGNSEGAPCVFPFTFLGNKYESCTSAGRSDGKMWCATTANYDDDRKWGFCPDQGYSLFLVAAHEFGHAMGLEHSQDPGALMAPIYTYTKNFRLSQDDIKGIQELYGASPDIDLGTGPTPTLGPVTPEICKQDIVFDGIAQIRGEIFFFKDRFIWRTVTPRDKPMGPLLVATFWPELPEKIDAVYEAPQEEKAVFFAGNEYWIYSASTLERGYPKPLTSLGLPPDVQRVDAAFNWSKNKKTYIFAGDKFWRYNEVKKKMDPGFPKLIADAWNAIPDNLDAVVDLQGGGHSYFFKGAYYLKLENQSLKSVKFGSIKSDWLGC

CC(C)ON([C@@H](CCNC(=O)OCc1ccccc1)C(=O)NO)S(=O)(=O)c1ccc(-c2ccccc2)cc1
IC50 [1]: 16 nM
IC50 (Interstitial collagenase [2]): > 3000 nM
IC50 [3]: 0.41 nM
IC50 (Stromelysin-1 [4]): 130 nM
IC50 [5]: 7.7 nM
IC50 (Matrilysin [6]): 10000 nM

O=C(C[C@@H](CSc1ccccc1)C(=O)O)c1ccc(-c2ccc(Cl)cc2)cc1
Ki [1]: 301 nM
Ki (Interstitial collagenase [2]): > 5000 nM
Ki [3]: 11 nM
Ki (Collagenase 3 [7]): 147000 nM

O=C(NCCCCC(NS(=O)(=O)c1ccc(-c2ccccc2)cc1)C(=O)O)OCc1ccccc1 (centres undefined)
IC50 [8]: 1800 nM
IC50 [9]: 50 nM

COc1ccc(-c2ccc(CN3C(C(=O)NO)CCS3(=O)=O)cc2)cc1 (centres undefined)
Ki (Interstitial collagenase [2]): 4950 nM

O=C(NO)C1(S(=O)(=O)c2ccc(Oc3ccc(Cl)cc3)cc2)CCOCC1
Ki [3]: 0.22 nM
Ki (Stromelysin-1 [4]): 9.3 nM
Ki (Matrilysin [6]): 1200 nM

O=C(CCC(NS(=O)(=O)c1ccc(-c2ccccc2)cc1)C(=O)O)NCc1ccccc1 (centres undefined)
IC50 [1]: 0.704 nM

CC(=O)Nc1ccc(Oc2ccc(S(=O)(=O)CC3CS3)cc2)cc1 (centres undefined)
Ki (Interstitial collagenase [2]): > 154000 nM
Ki (Stromelysin-1 [4]): > 188000 nM
Ki [5]: > 230000 nM

COc1ccc(S(=O)(=O)N(Cc2ccccc2)[C@@H](C(=O)NO)C(C)C)cc1
IC50 [10]: 7.7 nM
IC50 (Stromelysin-1 [4]): 13 nM

C=CC[C@H](C(=O)NO)C(CC(C)C)C(=O)N[C@@H](Cc1ccccc1)C(=O)NC (some centres undefined)
IC50 [1]: 3 nM
Ki [1]: 3 nM
IC50 (Interstitial collagenase [2]): 10 nM
Ki (Interstitial collagenase [2]): 8 nM
Ki [10]: 5 nM
IC50 [3]: 5 nM
Ki [3]: 4 nM
IC50 (Stromelysin-1 [4]): 30 nM
Ki (Stromelysin-1 [4]): 30 nM
Ki [5]: 10 nM
Ki (Collagenase 3 [7]): 7 nM
IC50 (Neutrophil collagenase [11]): 3 nM
Ki (Neutrophil collagenase [11]): 3 nM
IC50 (Matrilysin [6]): 30 nM
Ki (Matrilysin [6]): 60 nM

NCCCCC(NS(=O)(=O)c1ccc(-c2ccccc2)cc1)C(=O)O (centres undefined)
IC50 [8]: 40000 nM
IC50 [9]: 900 nM

CCNC(=O)CCC(NS(=O)(=O)c1ccc(-c2ccccc2)cc1)C(=O)O (centres undefined)
IC50 [1]: 1.19 nM

O=C(NCCCCC(NS(=O)(=O)c1ccc(-c2ccc(Cl)cc2)cc1)C(=O)O)OCc1ccccc1 (centres undefined)
IC50 [8]: 800 nM
IC50 [9]: 5 nM

COc1ccc(-c2cn(-c3ccc(S(=O)(=O)C4(C(=O)NO)CCOCC4)cc3)nn2)cc1
IC50 [12]: 0.3 nM
IC50 (Interstitial collagenase [2]): > 1000 nM
IC50 [13]: 11.3 nM
IC50 [10]: 1.2 nM
IC50 (Stromelysin-2 [14]): 7.8 nM
IC50 (Stromelysin-1 [4]): 9.6 nM
IC50 [5]: 8.2 nM
IC50 (Collagenase 3 [7]): 1.4 nM
IC50 (Neutrophil collagenase [11]): 6.1 nM
IC50 (Matrilysin [6]): 70 nM

CN1C(=O)N(C[C@H](C(=O)NO)[C@H](CC2CCCC2)C(=O)N2CCCCC2)C(=O)C1(C)C
Ki (Neutrophil collagenase [11]): 4 nM

NC(=O)CCC(NS(=O)(=O)c1ccc(-c2ccccc2)cc1)C(=O)O (centres undefined)
IC50 [1]: 3.57 nM

O=C(CS(=O)(=O)c1ccc(-c2ccccc2)cc1)NO
IC50 [1]: 140 nM
IC50 (Interstitial collagenase [2]): 1800 nM
IC50 [3]: 6 nM
IC50 (Stromelysin-1 [4]): 200 nM
IC50 [5]: 376 nM
IC50 (Collagenase 3 [7]): 9.8 nM
IC50 (Matrilysin [6]): 24 nM

CO[C@H](C(=O)NO)[C@@H](CC(C)C)C(=O)N[C@H](C(=O)Nc1ccccn1)C(C)(C)C [SOLIMASTAT]
IC50 [1]: 70 nM
IC50 [3]: 80 nM
IC50 (Matrilysin [6]): 5 nM

CNC(=O)[C@@H](NC(=O)[C@H](CC(C)C)NC(=O)[C@H](S)CCN1C(=O)N(C)C(C)(C)C1=O)C(C)(C)C
IC50 [1]: 25 nM
IC50 (Interstitial collagenase [2]): 25 nM
IC50 [3]: 41 nM
IC50 (Stromelysin-1 [4]): 157 nM
IC50 (Collagenase 3 [7]): 4 nM

NC(=O)[C@H](CCC(=O)O)NC(=O)[C@@H](CCC(=O)O)NC(=O)CCc1ccc(-c2ccccc2)cc1
Ki (Stromelysin-2 [15]): 1110 nM
Ki [16]: 445 nM
Ki (Stromelysin-1 [17]): 6700 nM
Ki (Matrilysin [18]): 24700 nM
Ki (Collagenase 3 [19]): 689 nM
Ki (Interstitial collagenase [20]): > 100000 nM
Ki [21]: 1090 nM
Ki [22]: 5900 nM
Ki (Neutrophil collagenase [23]): 226 nM

CNC(=O)[C@@H](NC(=O)[C@H](CC(C)C)[C@H](O)C(=O)NO)C(C)(C)C
IC50 [5]: 1.8 nM

O=C(NO)C(Cc1ccccc1)NS(=O)(=O)c1ccc(-c2cn(-c3ccc(-c4ccccc4)cc3)nn2)cc1 (centres undefined)
IC50 [12]: 1.3 nM
IC50 (Interstitial collagenase [2]): > 10000 nM
IC50 [13]: 5.54 nM
IC50 [10]: 3.8 nM
IC50 (Stromelysin-2 [14]): 181 nM
IC50 (Stromelysin-1 [4]): 50 nM
IC50 [5]: 556 nM
IC50 (Collagenase 3 [7]): < 5 nM
IC50 (Neutrophil collagenase [11]): > 500 nM
IC50 (Matrilysin [6]): > 500 nM

O=C(NO)C1(S(=O)(=O)c2ccc(-n3cc(-c4ccc(-c5ccccc5)cc4)nn3)cc2)CCOCC1
IC50 [12]: 1.4 nM
IC50 (Interstitial collagenase [2]): > 1000 nM
IC50 [13]: 98 nM
IC50 [10]: 3.2 nM
IC50 (Stromelysin-2 [14]): 51 nM
IC50 (Stromelysin-1 [4]): 17.2 nM
IC50 [5]: 65 nM
IC50 (Collagenase 3 [7]): 0.9 nM
IC50 (Neutrophil collagenase [11]): > 100 nM
IC50 (Matrilysin [6]): > 100 nM

O=C(O)CS(=O)(=O)c1ccc(-c2ccccc2)cc1
IC50 [1]: 212000 nM
IC50 (Interstitial collagenase [2]): 380000 nM
IC50 [3]: 12500 nM
IC50 (Stromelysin-1 [4]): 364000 nM
IC50 [5]: 165 nM
IC50 (Collagenase 3 [7]): 101000 nM
IC50 (Matrilysin [6]): 14200 nM

CN(C)c1ccc(O)c2c1C[C@H]1C[C@H]3[C@H](N(C)C)C(O)=C(C(N)=O)C(=O)[C@@]3(O)C(O)=C1C2=O [MINOCYCLINE]
IC50 [1]: 180000 nM
IC50 (Stromelysin-1 [4]): 290000 nM
IC50 (Matrilysin [6]): 125000 nM
